Laboratory results: patent publication US20110281836A1, “Silent desensitizers of neuronal NACHR and methods of use thereof” (priority 2008, published 2011)

How the values were obtained:
[1] = in vivo; cited from earlier work
[2] = stability of the isolated HCl salt on exposure to air; assay type: physicochemical; settings: white solid, larger scale
Excerpt: A gram-scale synthesis of sazetidine A is outlined in FIG. 1a. The Boc-protected azidityl methyl alcohol 2 and 3-bromo-5-hydroxy pyridine (3) are both commercially available. Treatment with PPh3 and DEAD according to the Mitsunobu protocol formed ether derivative 4 in 70% yield. Palladium-mediated coupling of the bromo-substituted pyridine 4 with 5-hexyn-1-ol under modified Sonogashira conditions furnished Boc-protected sazetidine A in 73% yield. Deprotection of the Boc-group with HCl was expected to give sazetidine A in salt form as published in the literature.

α3β4 nAChRs [3] = target: T1, α3β4 nAChRs (Rattus norvegicus, UniProt P04757+P12392); settings: concentrations up to 10 μM, even after preincubation; cited from earlier work
T1 construct: expressed in transfected cells; host or cells: HEK293 (KXα3β4R2)

α4β2 nAChRs [4] = target: T2, α4β2 nAChRs (Rattus norvegicus, UniProt P09483+P12390); test: radioligand ([3H]epibatidine) competition binding, α4β2 nAChR
T2 construct: expressed in transfected cells; host or cells: HEK293 (KXα4β2)
Procedure: (§1) A. Cell Lines and Cell Culture. The cell lines KXα3β4R2, expressing rat α3β4 nAChRs, and KXα4β2, expressing rat α4β2 nAChRs, were established previously by stably transfecting human embryonic kidney 293 cells with combinations of rat nAChR subunit genes. These cell lines are maintained in minimum essential medium supplemented with 10% fetal bovine serum, 100 units/mL penicillin G, […] streptomycin, and 0.7 mg/mL G418 (Geneticin) at 37° C. with 5% CO2 in a humidified incubator. The cell line SH-EP1-pcDNA-hα4β2, expressing human α4β2 nAChRs, was described previously and are available. The SH-EP1-pcDNA-hα4β2 cells are grown in Dulbecco's modified Eagle's medium supplemented with 5% fetal bovine serum, 10% horse serum, 100 units/mL penicillin G, 100 μg/mL streptomycin, 320 μg/mL hygromycin B (Calbiochem, La Jolla, Calif.), 400 units/mL Zeocin at 37° C. with 5% CO2 in a humidified incubator.
B. nAChR Binding Affinity and Sub-type Selectivity Assay. The Ki values of compounds for binding to α3β4, α4β2 and other nAChR sub-types will be measured by competition experiments with [3H]epibatidine or other labeled ligands. Not intending to be bound by any one approach, one radioligand binding assay used for measuring the binding of [3H]epibatidine to nAChRs is described below.
In brief, cultured cells at above about 80% confluence will be removed from their flasks (80 cm^2) with a disposable cell scraper and will be placed in 10 mL of 50 mM Tris-HCl buffer, pH 7.4, 4° C. The cell suspension will be centrifuged at 10,000 g for 5 min and the pellet will be collected. For cells undergoing prolonged treatment with nicotinic agonists during culturing, the pellet will be washed two more times by centrifugation in fresh buffer to remove residual drug. The cell pellet will then homogenized in 10 mL of buffer with a Polytron homogenizer (12-mm aggregate, 26,000 rpm, 20 s; model PT2100; Kinematica, Basel, Switzerland) and will be centrifuged at 36,000 g for 10 min at 4° C. The membrane pellet will be resuspended in fresh buffer, and aliquots of the membrane preparation equivalent to 30 to 200 μg of protein will be used for binding assays. The concentration of [3H]epibatidine used will be 100 pM for competition binding assays and 2.4 nM, which is a saturating concentration for the α4β2 receptor subtype, for measuring receptor density. Nonspecific binding will be assessed in parallel incubations in the presence of 300 μM nicotine. Bound and free ligands will be separated by vacuum filtration through Whatman GF/C filters treated with 0.5% polyethylenimine. The filter-retained radioactivity will be measured by liquid scintillation counting. […] Data from saturation and competition binding assays will be analyzed using Prism 4 (GraphPad Software, San Diego, Calif.).

α3β4 nAChRs [5] = target: T1, α3β4 nAChRs; settings: radioligand binding assays; cited from earlier work
α4β2 nAChRs [6] = target: T3, α4β2 nAChRs (Homo sapiens, UniProt P17787+P43681); settings: preincubated for 10 min with the cells; complete desensitization; cited from earlier work
T3 construct: expressed in transfected cells; host or cells: SH-EP1 (SH-EP1-pcDNA-hα4β2)

α7 nAChRs = settings: radioligand binding assays; cited from earlier work
α4β2 nAChRs [7] = target: T3, α4β2 nAChRs; settings: cited from earlier work
α3β4 nAChRs [8] = target: T1, α3β4 nAChRs; test: radioligand ([3H]epibatidine) competition binding, α3β4 nAChR
Procedure: as §1, with “The SH-EP1-pcDNA-hα4β2 cells are grown in Dulbecco's modified Eagle's medium supplemented with 5% fetal bovine serum, 10% horse serum, 100 units/mL penicillin G, 100 μg/mL streptomycin, 320 μg/mL hygromycin B (Calbiochem, La Jolla, Calif.), 400 units/mL Zeocin at 37° C. with 5% CO2 in a humidified incubator.” left out
B. nAChR Binding Affinity and Sub-type Selectivity Assay. The Ki values of compounds for binding to α3β4, α4β2 and other nAChR sub-types will be measured by competition experiments with [3H]epibatidine or other labeled ligands. […]
In brief, cultured cells at above about 80% confluence will be removed from their flasks (80 cm^2) with a disposable cell scraper and will be placed in 10 mL of 50 mM Tris-HCl buffer, pH 7.4, 4° C. […] Nonspecific binding will be assessed in parallel incubations in the presence of 300 μM nicotine. […] The filter-retained radioactivity will be measured by liquid scintillation counting. […] Data from saturation and competition binding assays will be analyzed using Prism 4 (GraphPad Software, San Diego, Calif.).

α4β2 nAChRs [9] = target: T3, α4β2 nAChRs; test: desensitizer test: 86Rb+ efflux after 10 min preincubation, α4β2 nAChR; assay type: cell-based
Procedure: as §1, with “The SH-EP1-pcDNA-hα4β2 cells are grown in Dulbecco's modified Eagle's medium supplemented with 5% fetal bovine serum, 10% horse serum, 100 units/mL penicillin G, 100 μg/mL streptomycin, 320 μg/mL hygromycin B (Calbiochem, La Jolla, Calif.), 400 units/mL Zeocin at 37° C. with 5% CO2 in a humidified incubator.” left out
C. nAChR Functional Assay. The agonist, antagonist and/or desitizer activity of compounds of the invention can be evaluated by measuring its blockade of nicotine-stimulated 86Rb+ efflux. […]
In brief, cells will be plated into 24-well plates coated with poly-D-lysine. […] Radioactivity of assay samples and lysates will be measured by liquid scintillation counting. Total loading (cpm) will be calculated as the sum of the assay sample and the lysate of each well. The amount of 86Rb+ efflux will be expressed as a percentage of 86Rb+ loaded. […] IC50 values will be determined by nonlinear least-squares regression analyses (GraphPad Software).
D. Measurement of Desensitization. Not intending to be bound by any one method, desensitization may be measured, for example, by the method described below. […]

Structure (SMILES) | analgesic potency [1] | stability on exposure to air [2] | effect on the function of α3β4 nAChRs (α3β4 nAChRs [3]) | Ki (α4β2 nAChRs [4]) [µM] | selectivity, affinity at α4β2 compared to α3β4 nAChRs (α3β4 nAChRs [5]) | EC50 (α4β2 nAChRs [6]) [µM] | selectivity, affinity at α4β2 compared to α7 nAChRs (α7 nAChRs) | agonist activity at α4β2 nAChRs (α4β2 nAChRs [7]; added alone) | antagonist activity at α4β2 receptors (α4β2 nAChRs [7]; added simultaneously with an agonist, such as nicotine) | decrease in Ki relative to sazetidine A (α4β2 nAChRs [4]; triazole in place of the alkynyl group) | selectivity for the α4β2 receptor (α4β2 nAChRs [4]; α4β2 over α3β4, from Ki values) | Ki (α3β4 nAChRs [8]) [µM] | IC50 (α4β2 nAChRs [9]) [µM]
Clc1ccc(C2CC3CCC2N3)cn1 (centres unmarked) [Epibatidine] | ~200 times that of morphine | – | – | – | – | – | – | – | – | – | – | – | –
OCCCCC#Cc1cncc(OCC2CCN2)c1 (centres unmarked) [sazetidine A] | – | decomposition of the material to a yellow-brown wet solid | no effect | 0.00041 | greater than 10,000 fold | 0.026 | > 3,500 fold | low agonist activity | no typical antagonist activity | – | – | – | –
OCCCCc1cn(-c2cncc(OCC3CCN3)c2)nn1 (centres unmarked) [triazetidine O] | – | – | – | 0.00351 | – | – | – | – | – | approximately 10 fold | 17,692 fold | 62 | 0.1
